Literature values, collected in US9233169B2, “Oligomer-bis-chromonyl compound conjugates” (NEKTAR THERAPEUTICS, priority 2008, dated 2016).

System: mast cell degranulation
Conditions: monkey gingiva; Nuki et al. (1975)

In the case of `O=C([O-])c1cc(=O)c2c(OCC(O)COc3cccc4oc(C(=O)[O-])cc(=O)c34)cccc2o1.[Na+].[Na+]` [Cromonlyn sodium, disodium 5,5′-((2-hydroxytrimethylene)dioxy)bis(4-oxo-4H-1 benzopyran-2-carboxylate)], the “inhibition of mast cell degranulation” value is listed as “inhibit mast cell degranulation”.
